The experiment has as its target Human immunodeficiency virus type 1 protease (Human immunodeficiency virus 1, UniProt Q72874). Briefly: Inhibition of HIV-1 protease.

The structures appear in SMILES notation.

As a reminder, the Ki is the dissociation constant of the complex between target and ligand, obtained from inhibition or displacement.

Compound `CC(C)(C)NC(=O)c1cccc(CN2C(=O)N(c3cccc(N)c3)[C@H](Cc3ccccc3)[C@H](O)[C@@H](O)[C@H]2Cc2ccccc2)c1` gave a Ki of 0.41 nM.

Regarding `N#CCNC(=O)c1cccc(CN2C(=O)N(C(=O)CNC(=O)c3ccccc3)[C@H](Cc3ccccc3)[C@H](O)[C@@H](O)[C@H]2Cc2ccccc2)c1`, the Ki amounted to 0.024 nM. Against the preceding compound, the Ki is about 17-fold lower.

Consider `O=C(NCC1CC1)c1cccc(CN2C(=O)N(Cc3cccc(C(=O)NCC4CC4)c3)[C@H](Cc3ccccc3)[C@H](O)[C@@H](O)[C@H]2Cc2ccccc2)c1`, for which the Ki was 0.741 nM.

Regarding `COc1cc(OC)cc(N2C(=O)N(Cc3cccc(C(=O)Nc4cccc(C)n4)c3)[C@H](Cc3ccccc3)[C@H](O)[C@@H](O)[C@H]2Cc2ccccc2)c1`, affinity was put at a Ki of 0.7 nM.

The compound `COc1cc(OC)cc(N2C(=O)N(Cc3cccc(C(=O)Nc4ccccn4)c3)[C@H](Cc3ccccc3)[C@H](O)[C@@H](O)[C@H]2Cc2ccccc2)c1` displayed a Ki of 0.86 nM. This Ki and that of the compound before are within 1.5-fold of each other.

The compound `Nc1cccc(N2C(=O)N(Cc3cccc(C(=O)Nc4ncc[nH]4)c3)[C@H](Cc3ccccc3)[C@H](O)[C@@H](O)[C@H]2Cc2ccccc2)c1` had a Ki of 0.012 nM.

Take `O=C(Nc1ccccn1)c1cccc(CN2C(=O)N(c3cccc([N+](=O)[O-])c3)[C@H](Cc3ccccc3)[C@H](O)[C@@H](O)[C@H]2Cc2ccccc2)c1`: the Ki was 0.096 nM.

On to `Cc1ccc(NC(=O)c2cccc(CN3C(=O)N(c4cccc(N)c4)[C@H](Cc4ccccc4)[C@H](O)[C@@H](O)[C@H]3Cc3ccccc3)c2)nc1`, for which the Ki turned out to be 0.075 nM.

`COc1cccc(N2C(=O)N(Cc3cccc(C(=O)Nc4ccccn4)c3)[C@H](Cc3ccccc3)[C@H](O)[C@@H](O)[C@H]2Cc2ccccc2)c1` came in with an inhibition constant (Ki) of 0.047 nM.

Compound `Nc1cccc(N2C(=O)N(Cc3cccc(C(=O)Nc4cnccn4)c3)[C@H](Cc3ccccc3)[C@H](O)[C@@H](O)[C@H]2Cc2ccccc2)c1` showed a Ki of 0.016 nM.

As to `CC(C)(C)CCN1C(=O)N(CCC(C)(C)C)[C@H](Cc2ccccc2)[C@H](O)[C@@H](O)[C@H]1Cc1ccccc1`, the Ki worked out at 36 nM.

The compound `COc1cccc(N2C(=O)N(Cc3cccc(C(=O)Nc4cccc(C)n4)c3)[C@H](Cc3ccccc3)[C@H](O)[C@@H](O)[C@H]2Cc2ccccc2)c1` had a Ki of 0.053 nM. This Ki lies about 680-fold lower than the previous one.

As to `COc1cc(OC)cc(N2C(=O)N(Cc3cccc(C(=O)Nc4cnccn4)c3)[C@H](Cc3ccccc3)[C@H](O)[C@@H](O)[C@H]2Cc2ccccc2)c1`, the Ki was 2.51 nM.

For `O=C(NCc1ccccc1)c1cccc(CN2C(=O)N(Cc3cccc(C(=O)NCc4ccccc4)c3)[C@H](Cc3ccccc3)[C@H](O)[C@@H](O)[C@H]2Cc2ccccc2)c1`, the Ki came out at 0.43 nM.

In turn, `COc1cccc(N2C(=O)N(Cc3cccc(C(=O)Nc4cnccn4)c3)[C@H](Cc3ccccc3)[C@H](O)[C@@H](O)[C@H]2Cc2ccccc2)c1` displayed a Ki of 0.038 nM. This Ki is about 11-fold lower than that of the compound before.

In the case of `O=C1N(Cc2ccc3ccccc3c2)[C@H](Cc2ccccc2)[C@H](O)[C@@H](O)[C@@H](Cc2ccccc2)N1C1CCCC1`, the affinity corresponds to a Ki of 0.28 nM.

In turn, `Nc1cccc(N2C(=O)N(Cc3cccc(C(=O)Nc4nc5ccccc5[nH]4)c3)[C@H](Cc3ccccc3)[C@H](O)[C@@H](O)[C@H]2Cc2ccccc2)c1` had a Ki of 0.023 nM.

Regarding `COc1cc(OC)cc(N2C(=O)N(Cc3cccc(C(=O)Nc4ccc(C)cn4)c3)[C@H](Cc3ccccc3)[C@H](O)[C@@H](O)[C@H]2Cc2ccccc2)c1`, affinity was put at a Ki of 1.9 nM.

In the case of `COc1cccc(N2C(=O)N(Cc3cccc(C(=O)Nc4ccc(C)cn4)c3)[C@H](Cc3ccccc3)[C@H](O)[C@@H](O)[C@H]2Cc2ccccc2)c1`, affinity was put at a Ki of 0.069 nM.

These data come from ChEMBL document CHEMBL1132660, “Three-dimensional quantitative structure-activity relationship study on cyclic urea derivatives as HIV-1 protease inhibitors: application of comparative molecular field analysis” (J Med Chem, 1999).
